Like-named read-outs stand apart in the source and are kept apart here. Starred links: 1 amine or outer side, 2 acyl side, 3 side chain; linkers in the order of their positions; H or OH if unused. Non-standard residues stand in square brackets, D forms with d. Groups on a side chain read outwards from the residue. *: point of attachment. Decanoyl(10-(4-HOOC-PhO)) = O=C(O)c1ccc(OCCCCCCCCCC(=O)*)cc1; C20 diacid = O=C(O)CCCCCCCCCCCCCCCCCCC(=O)*; C18 diacid = O=C(O)CCCCCCCCCCCCCCCCC(=O)*; C16 diacid = O=C(O)CCCCCCCCCCCCCCC(=O)*; γGlu = O=C(O)[C@H](CCC(=O)[*:2])N[*:1]; εLys = N[C@@H](CCCCN[*:1])C(=O)[*:2]; Trx = NC[C@H]1CC[C@H](C(=O)O)CC1; AEEA = NCCOCCOCC(=O)O; Aib = CC(C)(N)C(=O)O; Ahx = NCCCCCC(=O)O
Key:
human GLP-1 receptor = target: T1, human GLP-1 receptor (Homo sapiens, UniProt P43220); experiment: Human GLP-1 receptor in vitro potency assay (CRE-luciferase reporter, BHK cells); assay type: cell-based
T1 construct: expressed in transfected cells; host or cells: BHK (Baby Hamster Kidney) cells, clone BHK 467-12A KZ-10, stably transfected, with CRE-luciferase reporter
Procedure: It is thus possible to measure GLP-1 receptor activity using a CRE-luciferase reporter gene introduced into Baby Hamster Kidney (BHK) cells co-expressing the GLP-1 receptor.
Cells were aliquoted and stored at -180° C. until use.
Plates were sealed and incubated at room temperature with gentle shaking for 30 minutes while protected from light. Luminescence was detected on a luminescence plate reader e.g. a Synergy 2 (BioTek).

[1] = Pharmacokinetic studies in Beagle dogs after oral administration of SNAC-based tablets; assay type: in vivo; details: for Tmax / half-life: male, Beagle
Procedure: To be able to evaluate oral exposure following tablet dosing, tablet compositions comprising the test substance and SNAC (sodium N-(8-(2-hydroxybenzoyl)amino)caprylate) were prepared by mixing test substance with roller compacted SNAC and magnesium stearate as, e.g., described in WO 2019/149880. The amount of SNAC in the tablet composition was 100-300 mg, the amount of magnesium stearate in the tablet composition was 7.7 mg, and the target amount of each test substance in the tablet composition was 3-4 mg.
Pharmacokinetic (PK) studies in Beagle dogs were conducted to determine the exposure of the GLP-1 receptor-amylin receptor co-agonist after peroral administration.
For the pharmacokinetic studies male Beagle dogs were used, 2-7, or 1 to 5, years of age and weighing approximately 10-15, such as 10-12, kg at the start of the studies. The dogs were group housed in pens (12 hours light: 12 hours dark),and fed individually and restrictedly once daily with Royal Canin Medium Adult dog (Royal Canin Products, China Branch, or Brogaarden A/S, Denmark). Exercise and group social were permitted daily, whenever possible. The dogs were used for repeated pharmacokinetic studies with a suitable wash-out period between successive dosing. An appropriate acclimatisation period was given prior to initiation of the first pharmacokinetic study. All handling, dosing and blood sampling of the animals were performed by trained and skilled staff. Before the studies the dogs were fasted overnight and from 0 to 4 h after dosing. Besides, the dogs were restricted to water 1 hour before dosing until 4 hours after dosing, but otherwise have ad libitum access to water during the whole period.
The tablets used for the p.o. studies described herein were immediate release SNAC-based tablets dosed orally.
The tablets were administered in the following manner: 10 min prior to tablet administration the dogs may be dosed subcutaneously with approximately 3 nmol/kg of SEQ ID NO: 237, tablets were placed in the back of the mouth of the dog to prevent chewing. The mouth was then closed, and 10 mL of tap water was given by a syringe or gavage to facilitate swallowing of the tablet.
Blood was sampled at predefined time points for up till 240 hours, such as up till 10 hr, post dosing to adequately cover the full plasma concentration-time absorption profile of the GLP-1 agonist.
For each blood sampling time point approximately 0.8 mL of whole blood was collected in a 1.5 mL EDTA coated tube, and the tube was gently turned to allowing mixing of the sample with the EDTA. Blood samples (for example 0.8 mL) were collected in EDTA buffer (8 mM) and then centrifuged at 4° C. and 2000 G for 10 minutes. Plasma was pipetted into Micronic tubes on dry ice, and kept at -20° C. until analysis.
Blood samples were taken as appropriate, for example from a venflon in the cephalic vein in the front leg for the first 2 hours and then with syringe from the jugular vein for the rest of the time points (the first few drops were allowed to drain from the venflon to avoid heparin saline from the venflon in the sample).
Plasma concentration of the GLP-1 receptor-amylin receptor co-agonists were determined using LCMS. Individual plasma concentration-time profiles were analysed by a non-compartmental model in WinNonlin v. 5.0 or Phoenix v. 6.2 or 6.3 (Pharsight Inc., Mountain View, CA, USA), or other relevant software for PK analysis.
The individual plasma concentration-time profiles were analysed by non-compartmental analysis (NCA).

[2] = target: T2, human amylin receptor (hAmyR3) (Homo sapiens, UniProt O60896+P30988); experiment: Human amylin receptor in vitro potency assay (CRE-luciferase reporter, BHK cells); assay type: cell-based;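 further: BHK cells expressing human calcitonin receptor plus RAMP3 (amylin-3 receptor) with a CRE-luciferase reporter, agonist activity read as luminescence from cAMP-driven transcription, 7-point serial dilutions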
T2 construct: host or cells: BHK cells (Hollex-1 line: human calcitonin receptor (a) + CRE-Luc), further transfected with human RAMP3

[3] = dogs, oral administration (tablet)
[4] = dog, in vivo, dogs, oral administration (tablet), read-out: Tmax
[5] = dog, in vivo, dogs, oral administration (tablet), read-out: T½ (converted)
[6] = Table 4a, BHK cells expressing human GLP-1R, CRE-Luc, 3 hours, read-out: Human GLP-1R potency [EC50 (pM)]
[7] = Table 4a, BHK hAmyR3/CRE-Luc cells, 3 hours, read-out: Human AmyR3 potency [EC50 (pM)]

T1 sequence (P43220 24-463): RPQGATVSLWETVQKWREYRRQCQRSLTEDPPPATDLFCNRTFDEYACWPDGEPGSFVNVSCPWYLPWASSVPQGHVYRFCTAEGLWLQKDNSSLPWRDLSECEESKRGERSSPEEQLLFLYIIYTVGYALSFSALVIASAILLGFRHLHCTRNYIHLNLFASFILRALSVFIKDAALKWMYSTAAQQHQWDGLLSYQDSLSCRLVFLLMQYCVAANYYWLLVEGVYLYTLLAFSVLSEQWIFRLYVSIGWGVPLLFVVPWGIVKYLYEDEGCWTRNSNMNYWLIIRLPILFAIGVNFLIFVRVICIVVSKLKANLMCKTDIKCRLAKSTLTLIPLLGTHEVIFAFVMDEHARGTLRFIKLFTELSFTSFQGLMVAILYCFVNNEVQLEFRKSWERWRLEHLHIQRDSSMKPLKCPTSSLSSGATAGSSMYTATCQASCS
T2 sequence (P30988 25-474): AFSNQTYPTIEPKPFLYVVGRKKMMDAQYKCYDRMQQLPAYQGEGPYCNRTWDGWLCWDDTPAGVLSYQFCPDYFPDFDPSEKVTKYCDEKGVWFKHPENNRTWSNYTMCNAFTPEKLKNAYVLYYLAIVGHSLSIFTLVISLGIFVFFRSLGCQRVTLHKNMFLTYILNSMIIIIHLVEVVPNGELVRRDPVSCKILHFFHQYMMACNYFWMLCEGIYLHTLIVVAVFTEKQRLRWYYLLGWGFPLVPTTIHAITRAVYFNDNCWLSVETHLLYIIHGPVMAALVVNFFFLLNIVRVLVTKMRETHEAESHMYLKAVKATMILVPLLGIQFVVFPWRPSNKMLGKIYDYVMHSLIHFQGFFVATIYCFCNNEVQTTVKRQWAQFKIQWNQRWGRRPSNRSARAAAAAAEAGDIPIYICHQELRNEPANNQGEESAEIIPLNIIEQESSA
T2 sequence (O60896 24-148): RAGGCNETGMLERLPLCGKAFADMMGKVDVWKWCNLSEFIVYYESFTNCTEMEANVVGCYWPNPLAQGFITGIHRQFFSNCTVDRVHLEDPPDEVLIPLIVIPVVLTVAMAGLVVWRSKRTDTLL

| Molecule | EC50 (human GLP-1 receptor; [6]) [pM] | AUC/D ([1]; dog, in vivo, po) [kg·h/L] | Cmax/D ([1]; dog, in vivo, po) [kg/L] | Tmax ([1]; dog, in vivo, po, Tmax (hr)) [h] | half-life ([1]; dog, in vivo, po, T½ (hr)) [h] | EC50 [2, 7] [pM] | EC50 (human GLP-1 receptor) [pM] | AUC/D [1, 3] [kg·h/L] | Cmax/D [1, 3] [kg/L] | Tmax [1, 4] [h] | half-life [1, 5] [h] | EC50 [2] [pM] |
| --- | --- | --- | --- | --- | --- | --- | --- | --- | --- | --- | --- | --- |
| CC[C@H](C)[C@H](NC(=O)[C@H](Cc1ccccc1)NC(=O)[C@H](CCC(=O)O)NC(=O)[C@H](CCCNC(=N)N)NC(=O)[C@H](C)NC(=O)[C@H](C)NC(=O)[C@H](CCC(N)=O)NC(=O)[C@H](CCC(=O)O)NC(=O)[C@H](CCC(=O)O)NC(=O)[C@H](CC(C)C)NC(=O)[C@H](Cc1ccc(O)cc1)NC(=O)[C@H](CO)NC(=O)[C@H](CO)NC(=O)[C@H](CCCCNC(=O)COCCOCCNC(=O)COCCOCCNC(=O)CC[C@H](NC(=O)[C@H]1CC[C@H](CNC(=O)CCCCCCCCCCCCCCCCCCC(=O)O)CC1)C(=O)O)NC(=O)[C@H](CC(=O)O)NC(=O)[C@H](CO)NC(=O)[C@@H](NC(=O)[C@H](Cc1ccccc1)NC(=O)[C@@H](NC(=O)CNC(=O)[C@H](CCC(=O)O)NC(=O)[C@H](C)NC(=O)[C@@H](N)Cc1c[nH]cn1)[C@@H](C)O)[C@@H](C)O)C(=O)N[C@@H](CCC(=O)O)C(=O)N[C@@H](Cc1c[nH]c2ccccc12)C(=O)N[C@@H](CC(C)C)C(=O)N[C@H](C(=O)N[C@@H](CCCNC(=N)N)C(=O)NCC(=O)N[C@@H](CCCNC(=N)N)C(=O)NCC(=O)N[C@@H](CCC(=O)O)C(=O)N[C@@H](C)C(=O)N[C@@H](CO)C(=O)N[C@@H](CCC(=O)O)C(=O)N[C@@H](CC(C)C)C(=O)N[C@@H](CO)C(=O)N[C@H](C(=O)N[C@@H](C)C(=O)N[C@@H](C)C(=O)N[C@@H](CC(C)C)C(=O)NCC(=O)N[C@@H](CCCNC(=N)N)C(=O)N[C@@H](CC(C)C)C(=O)N[C@@H](CO)C(=O)N[C@@H](C)C(=O)N[C@@H](CCC(=O)O)C(=O)N[C@@H](CC(C)C)C(=O)N[C@@H](Cc1c[nH]cn1)C(=O)N[C@@H](CCC(=O)O)C(=O)N[C@@H](CC(C)C)C(=O)N[C@@H](C)C(=O)N[C@H](C(=O)N[C@@H](CC(C)C)C(=O)N1CCC[C@H]1C(=O)N[C@@H](CCCNC(=N)N)C(=O)N[C@H](C(=O)N[C@@H](CCC(=O)O)C(=O)N[C@H](C(=O)NCC(=O)N[C@@H](CO)C(=O)NCC(=O)N[C@@H](CO)C(=O)N1CCC[C@H]1C(N)=O)[C@@H](C)O)[C@@H](C)O)[C@@H](C)O)[C@@H](C)O)C(C)C [Compound 0431] | – | – | – | – | – | – | 10.9 | 9.75 | 0.29 | 1.5 | 34 | 11.9 |
| H-HWEGTFTSDVSSYLEEQAAREFIEWLVRGK([AEEA-AEEA-γGlu-Decanoyl(10-(4-HOOC-PhO))])GEGGGGGASELSTAALGRLSAELHELK([AEEA-AEEA-γGlu-Decanoyl(10-(4-HOOC-PhO))])TLPRTETGSGSP-NH2 [Compound 0234] | – | – | – | – | – | – | 38.9 | 8.00 | 0.35 | 1 | 31 | 38.4 |
| H-HWEGTFTSDVSSYLEEQAAREFIEWLVRGK([AEEA-AEEA-γGlu-Decanoyl(10-(4-HOOC-PhO))])GEGGGGGASELSTAALGRLSK([AEEA-AEEA-γGlu-Decanoyl(10-(4-HOOC-PhO))])ELHELATLPRTETGSGSP-NH2 [Compound 0233] | – | – | – | – | – | – | 46.4 | 8.43 | 0.3 | 1.5 | 43 | 182 |
| H-H[Aib]EGTFTSDK([AEEA-AEEA-γGlu-C16 diacid])SSYLEEQAAREFIAWLVRGRGGGGGASELSTAALGRLSK([AEEA-AEEA-γGlu-C16 diacid])ELHELATLPRTETGSGSP-NH2 [Compound 0292] | 12 | 65.29 | 0.72 | 2 | 110 | 33.8 | – | – | – | – | – | – |
| H-H[Aib]EGTFTSDK([AEEA-AEEA-γGlu-C16 diacid])SSYLEEQAAREFIAWLVRGRGGGGGEASELSTAALGRLSAELHK([AEEA-AEEA-γGlu-C16 diacid])LATLPRTETGSGSP-NH2 [Compound 0259] | 15.8 | 31.73 | 0.48 | 1.5 | 97 | 12 | – | – | – | – | – | – |
| H[Aib]EGTFTSDVSSYLEEQAARK([εLys-AEEA-AEEA-γGlu-C18 diacid])FIAWLVRGK([εLys-AEEA-AEEA-γGlu-C18 diacid])GGGGGGGGGEASELSTAALGRLSAELHELATLPRTETGSGSP-NH2 [Compound 0110] | – | – | – | – | – | – | 2.7 | – | – | – | – | 40.7 |

Further molecules by falling EC50 (human GLP-1 receptor; [6]), results first:

| EC50 (human GLP-1 receptor; [6]) [pM] | AUC/D ([1]; dog, in vivo, po) [kg·h/L] | Cmax/D ([1]; dog, in vivo, po) [kg/L] | Tmax ([1]; dog, in vivo, po, Tmax (hr)) [h] | half-life ([1]; dog, in vivo, po, T½ (hr)) [h] | EC50 [2, 7] [pM] | Molecule | EC50 (human GLP-1 receptor) [pM] | AUC/D [1, 3] [kg·h/L] | Cmax/D [1, 3] [kg/L] | Tmax [1, 4] [h] | half-life [1, 5] [h] | EC50 [2] [pM] |
| --- | --- | --- | --- | --- | --- | --- | --- | --- | --- | --- | --- | --- |
| 15.2 | 15.00 | 0.3 | 1.5 | 35 | 12.3 | H-H[Aib]EGTFTSDVSSYLEEQAAK([εLys-AEEA-AEEA-γGlu-Trx-C20 diacid])EFIEWLVRGRGEASELSTAALGRLSAELHELATLPRTETGSGSP-NH2 [Compound 0436] | – | – | – | – | – | – |
| 7.1 | 33.33 | 0.53 | 1.5 | 73 | 110 | H-H[Aib]EGTFTSDVSK([Ahx-γGlu-γGlu-C16 diacid])YLEEQAARK([Ahx-γGlu-γGlu-C16 diacid])FIEWLVRGAAEASELSTAALGRLSAELHELATLPRTETGSGSP-NH2 [Compound 0630] | – | – | – | – | – | – |
| 6 | 5.68 | 0.16 | 2 | 16 | 8.1 | H-H[Aib]EGTFTSDVSSYLEEK([AEEA-AEEA-γGlu-Trx-C20 diacid])AAREFIAWLVRGRGGGGEASELSTAALGRLSAELHELATLPRTETGSGSP-NH2 [Compound 0265] | – | – | – | – | – | – |
| 5.6 | 27.60 | 0.34 | 1.5 | 91 | 8.3 | H-H[Aib]EGTFTSDVSK([AEEA-AEEA-γGlu-C16 diacid])YLEEQAARK([AEEA-AEEA-γGlu-C16 diacid])FIAWLVRGRQEGGGGGASELSTAALGRLSAELHELATLPRTETGSGSP-NH2 [Compound 0575] | – | – | – | – | – | – |
| 5.6 | 37.60 | 0.45 | 1.3 | 93 | 19.1 | H-H[Aib]EGTFTSDVSK([AEEA-AEEA-γGlu-C16 diacid])YLEEQAARK([AEEA-AEEA-γGlu-C16 diacid])FIEWLVRGRGEASELSTAALGRLSAELHELATLPRTETGSGSP-NH2 [Compound 0577] | – | – | – | – | – | – |
| 3.8 | 37.01 | 0.5 | 1.5 | 107 | 22 | H-H[Aib]EGTFTSDVSK([AEEA-AEEA-γGlu-C16 diacid])YLEEQAAREFIAWLVRGRK([AEEA-AEEA-γGlu-C16 diacid])GGGGEASELSTAALGRLSAELHELATLPRTETGSGSP-NH2 [Compound 0528] | – | – | – | – | – | – |
| 2.9 | 28.20 | 0.34 | 1.3 | 94 | 10.1 | H-H[Aib]EGTFTSDVSK([AEEA-AEEA-γGlu-C16 diacid])YLEEQAARK([AEEA-AEEA-γGlu-C16 diacid])FIEWLVRGRGEGGGGGASELSTAALGRLSAELHELATLPRTETGSGSP-NH2 [Compound 0576] | – | – | – | – | – | – |
| 2.5 | 30.60 | 0.39 | 1.3 | 90 | 26.9 | H-H[Aib]EGTFTSDVSK([AEEA-AEEA-γGlu-C16 diacid])YLEEQAARK([AEEA-AEEA-γGlu-C16 diacid])FIAWLVRGRQEASELSTAALGRLSAELHELATLPRTETGSGSP-NH2 [Compound 0578] | – | – | – | – | – | – |

Reference: patent US20230331803A1, “CO-AGONISTS OF THE GLP-1 AND AMYLIN RECEPTORS” (priority 2020, published 2023)
